Key:
[1] = tested on: MS1 sequence (radio-labelled DNA, SEQ ID NO:6); assay: DNA footprinting (DNase I); type: binding; conditions: concentration of 0.03 μM
Protocol: DNA footprinting is a well-established technique in which a section of radio-labelled DNA (SEQ ID NO:6) is incubated with a chemical or biological cleaving agent, in the presence and absence of a putative binding ligand. Regions of ligand binding will show as blanks in the ‘ladder’. Knowing the DNA sequence, the binding sites can then be deduced, from the location of these blanks. The sequence shown in FIGS. 7 and 8 is MS1, which contains all possible four-base-pair binding sites. The procedure used in the footprinting experiments was analogous to that described in J. Med. Chem. 43, 3257 (2000), the disclosures of which document are hereby incorporated by reference. In an analogous manner to the procedure described in J. Med. Chem. 43, 3257 (2000), the MS1 sequence was labelled at the 3′-end with [α-^32P]dATP using reverse transcriptase. The agent used to cleave the radio-labelled DNA was DNase I. Bases that fall within the “footprint” of a compound are indicated by XX . . . XX underneath the sequence. The binding domain that has been confirmed by capillary electrophoresis is indicated by XX. XX.

[2] = tested on: mixture of double-stranded DNA oligonucleotides AAATTATATTAT (SEQ ID NO:1) and GGACTAGTCG (SEQ ID NO:4); assay: Capillary electrophoresis competitive binding study; conditions: AAATTATATTAT dodecamer versus GGACTAGTCG decamer
Text: (§1) Capillary electrophoresis was used to study of ligand-DNA binding (see: (i) Hamdan, I. I.; Skellern, G. G.; and Waigh, R. D. “Separation of pd(GC)12 from pd(AT)12 by free solution capillary electrophoresis”, J. Cromatogr. A. 806, 165-168 (1998); (ii) Hamdan, I. I.; Skellern, G. G.; and Waigh, R. D. “Use of capillary electrophoresis in the study of ligand-DNA interactions”, Nucleic Acids Research 26, 3053-3058 (1998); (iii) Hamdan, I. I.; Skellern, G. G.; and Waigh, R. D. “Ligand binding to oligonucleotides” Methods in Molecular Biology, Vol. 163, “Capillary Electrophoresis of Nucleic acids”, Vol 2, pages 379-391, K. R. Mitchelson and J. Cheng Eds., Humana Press, New Jersey, (2000)).
(§2) Typically, ligand binding results in a change in migration time of the DNA and sometimes a change in peak shape.
(§3) The following are shown in FIGS. 1-6: • (a) the experimental conditions, including the DNA sequence(s); • (b) the result of sequential addition of ligand; and • (c) the structure of the ligand being investigated. Key to FIGS. 1 to 6: • r0=electropherogram in the absence of drug • rX=(where X is 0.5, 1, 2, 3 or 4) electropherogram in the presence of drug, where the drug:DNA ratio (in terms of concentration) is X:1
This ratio corresponds to the binding ratio. […]

[3] = tested on: double-stranded DNA oligonucleotide CCACTAGTGG (SEQ ID NO:5); assay: Capillary electrophoresis ligand-DNA binding study; conditions: with CCACTAGTGG (SEQ ID NO:5)
Text: as §1, §2, §3
(§4) This ratio corresponds to the binding ratio.

[4] = tested on: NFκB protein-DNA complexes; assay: NFκB DNA-binding assay (gel shift) with macrophage nuclear extracts; type: biochemical, Murine; conditions: 1 μL of a 1 mM solution, final volume 10 μL; nuclear protein from macrophages exposed to LPS
Protocol: Murine macrophages (obtained and cultured as described in Cell. Signal. 11(7), 491 (1999), hereinafter referred to as “Reference 1”, the disclosures of which document are hereby incorporated by reference) were exposed to vehicle (see Reference 1) or 1 μg/mL lipopolysaccharide (LPS; the active component of gram-negative endotoxin and a strong activator of the Nuclear Factor kappa B (NFκB) pathway; the particular LPS being obtained from Salmonella minnesota) for 1 hour and nuclear extracts prepared by standard procedures (see Brit. J. Pharmacol. 134, 393 (2001), hereinafter referred to as “Reference 2”, the disclosures of which document are hereby incorporated by reference).
Aliquots of compounds (1 μL of a 1 mM solution) were incubated with 1 μL (0.035 pmol) of a ^32P-labelled 20 bp double-stranded DNA oligonucleotide (representing the consensus binding sequence for NFκB proteins (see Reference 2 and Brit. J. Pharmacol. 134, 1629-1638 (2001), the disclosures of which latter document are hereby incorporated by reference)) for 30 min at room temperature. […] The formation of NFκB protein-DNA complexes and potential inhibition of complex formation in the presence of the above compounds was detected by autoradiography. […]

[5] = tested on: double-stranded DNA decamer CGACTAGTCG (SEQ ID NO:3); assay: Capillary electrophoresis ligand-DNA binding study; conditions: drug to DNA ratio up to 4:1
Text: as §2, §3, §4

N-[3-(Dimethylamino)propyl]-2-({[4-({[4-(formylamino)-1-methyl-1H-pyrrol-2-yl]carbonyl}amino)-1-methyl-1H-pyrrol-2-yl]carbonyl}amino)-5-isopropyl-1,3-thiazole-4-carboxamide [Example 3]
footprint on MS1 sequence [1]: binding to only one site on the MS1 sequence
relative affinity in competitive binding [2]: greater affinity for the decamer ACTA sequence
binding result [3]: identical with that achieved with the sequence in FIG. 3
effect on LPS-stimulated NFκB-DNA binding activity [4]: appeared to inhibit
affinity for the sequence [5]: strong affinity
